Target: D(3) dopamine receptor (Homo sapiens, UniProt P35462)
Assay: Binding affinity against human Dopamine receptor D3 expressed in CHO cells by using [125I]iodosulpiride as radioligand

D(3) dopamine receptor, sequence (P35462 as listed by the source): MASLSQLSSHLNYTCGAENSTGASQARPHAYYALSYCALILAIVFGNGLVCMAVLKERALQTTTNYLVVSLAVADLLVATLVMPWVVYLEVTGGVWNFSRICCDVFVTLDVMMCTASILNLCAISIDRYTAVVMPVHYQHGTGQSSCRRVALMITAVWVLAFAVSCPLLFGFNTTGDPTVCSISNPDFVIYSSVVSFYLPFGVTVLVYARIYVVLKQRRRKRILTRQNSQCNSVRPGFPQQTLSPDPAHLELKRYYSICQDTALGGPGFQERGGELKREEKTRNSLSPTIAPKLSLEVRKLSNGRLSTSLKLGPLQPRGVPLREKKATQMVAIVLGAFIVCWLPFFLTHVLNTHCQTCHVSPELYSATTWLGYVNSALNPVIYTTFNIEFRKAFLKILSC

Ki, 1.3 nM:
CS(=O)(=O)c1ccc2c(c1)CCN(CC[C@H]1CC[C@H](NC(=O)C=Cc3ccccc3F)CC1)CC2, CS(=O)(=O)Oc1ccc2c(c1)CCN(CC[C@H]1CC[C@H](NC(=O)C=Cc3ccccc3F)CC1)CC2, COc1ccccc1C=CC(=O)N[C@H]1CC[C@H](CCN2CCc3ccc(OS(C)(=O)=O)cc3CC2)CC1, CS(=O)(=O)Oc1ccc2c(c1)CCN(CC[C@H]1CC[C@H](NC(=O)C=Cc3cccc(F)c3)CC1)CC2

From BindingDB's records for doi:10.1021/jm030817d (Glaxosmithkline Pharmaceuticals, 2003)
